# Tests used:
# [1] = test system: flushing side effect of niacin; assay: Example 1: flush rating on the Global Flush Severity Scale (GFSS) after niacin, with or without aspirin; assay type: in vivo, human; conditions: for reduction of flush severity (GFSS) from Period I: vs niacin alone
# Description: Healthy human patients were recruited for this study. […] Each patient was asked to rate his or her flush on the Global Flush Severity Scale (GFSS) (see FIG. 1 and Paolini et al. Int. J. Clin. Pract. 62(6):896-904 (2008)), when the flush completely resolved. The Global Flushing Severity Score measures, overall, in the previous 24 hours, how each patient rates the flushing symptoms, including redness, warmth, tingling, and itchiness of the skin. […] After the flush completely resolved, then each patient recorded his or her GFSS flush rating. Not until at least two days later did Period III start. At Period III, each patient was asked to not swallow the orally administered aspirin (81 mg) but to allow the aspirin to be absorbed through the oral mucosa. The aspirin was in powdered form and the remaining aspirin in the mouth was washed out with water. […] Still, the flush was rated (GFSS) after it was resolved. […] The flush was then rated (GFSS) after it completely resolved.
# [2] = GI-absorbed aspirin; cited from earlier work
compound,measurement,setting,value
CC(=O)Oc1ccccc1C(=O)O [aspirin],reduction of flush severity (GFSS) from Period I,[1]; Period II: 81 mg aspirin swallowed + 500 mg niacin,18%
same,Global Flush Severity Scale (GFSS) average score,"[1]; Period II: 81 mg aspirin swallowed, followed by 500 mg niacin",6.88
same,Global Flush Severity Scale (GFSS) average score,"[1]; Period III: 81 mg aspirin mucosally absorbed (not swallowed), then 500 mg niacin",5.06
same,reduction of flush severity (GFSS) from Period I,[1]; Period III: 81 mg aspirin mucosally absorbed + 500 mg niacin,40%
same,Global Flush Severity Scale (GFSS) average score,"[1]; Period IV: 81 mg aspirin half mucosally absorbed and half swallowed, then 500 mg niacin",3.94
same,reduction of flush severity (GFSS) from Period I,"[1]; Period IV: 81 mg aspirin half mucosally absorbed, half swallowed + 500 mg niacin",53%
same,time to peak aspirin serum level following administration,[2],15 to 20 min
